In ChEMBL document CHEMBL1138443, “Carbonic anhydrase inhibitors. Cloning, characterization, and inhibition studies of a new beta-carbonic anhydrase from Mycobacterium tuberculosis” (J Med Chem, 2009):

Molecular target: T1, Beta-carbonic anhydrase 1 (Mycobacterium tuberculosis, UniProt P9WPJ7)
T1 sequence (P9WPJ7 whole entry): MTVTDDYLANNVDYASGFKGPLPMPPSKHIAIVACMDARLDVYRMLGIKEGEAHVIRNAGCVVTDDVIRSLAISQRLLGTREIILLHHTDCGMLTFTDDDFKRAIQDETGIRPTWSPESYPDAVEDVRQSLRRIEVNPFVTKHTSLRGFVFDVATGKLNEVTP

Compound: CC(=O)/N=c1/sc(S(N)(=O)=O)nn1C [METHAZOLAMIDE]
- Ki: 781 nM
